{
  "source": "patent US9585878B2",
  "about": "“Treatment of BDNF-related disorders using laquinimod” (TEVA PHARMACEUTICAL INDUSTRIES, LTD., priority 2009, dated 2017)",
  "key": {"[1]": {"test_system": "Balb/c mice", "experiment": "Forced Swim Test (FST)", "assay_type": "in vivo"}, "[2]": {"test_system": "Balb/c mice", "experiment": "Open Field Test (motility and anxiety parameters)", "assay_type": "in vivo", "procedure": "The Open Field Test—Exploratory locomotor activity used in Examples 3.1 and 3.2 described below is one of the most popular in evaluation of animals' behavior. It tests both motility parameters and anxiety (Prut et al). An individual mouse is placed in a novel plexiglass arena of 50×50 cm the floor of which is divided into 3 digital zones: the outer peripheral zone 1, the medial zone 2 and the most central zone 3. The animal behavior in the open field is recorded by videotaping for 20 min and is analyzed subsequently digitally using Noldus software for animal behavior. The measurements include general motility (distance moved, velocity and strong mobility) and anxiety parameters (including frequency of visits to the central area, time spent in the inner field, and number of rearing events in the center). The more the animal stays and performs in the center, the less anxious it is.\nBalb/c male mice were divided to 6 groups (5/group) and administered laquinimod (1, 5, 10 and 25 mg/kg p.o. in the form of laquinimod sodium solution via gavage), fluoxetine (positive control 10 mg/kg po) or vehicle daily for 3 days. On the third day, 90 min following administration, mice were exposed to the open field for 20 min. Behavior was video recorded and analyzed using Ethovision software (Noldus Holland).\nBalb/c male mice were divided to 6 groups (5/group) and administered laquinimod (0.5, 1, 5 and 25 mg/kg p.o. in the form of laquinimod sodium solution via gavage), fluoxetine (positive control 10 mg/kg po) or vehicle daily for 3 days. On the third day, 90 min following administration, mice were exposed to the open field test for 20 minutes. Behavior was video recorded and analyzed using Ethovision software (Noldus Holland)."}, "[3]": {"test_system": "brain-derived neurotrophic factor (BDNF)", "experiment": "Clinical trial in RRMS patients: BDNF concentration in serum by sandwich ELISA", "assay_type": "in vivo, human", "conditions": "for Mean BDNF concentration in serum: RRMS patients", "procedure": "A study was initiated in relapsing remitting multiple sclerosis (RRMS) patients using laquinimod, 0.6 mg daily, in the form of the sodium salt, in an oral, once-daily tablet formulation. The study was a multinational, multicenter, randomized, double-blind, parallel-group, placebo controlled study assessing the efficacy, tolerability and safety of two doses of laquinimod in subjects with RRMS. Eligible subjects were randomized into the following three groups:\n1. 0.6 mg of laquinimod per os (p.o.) once daily;\n2. 0.3 mg of laquinimod per os (p.o.) once daily; and\n3. Matching placebo, per os (p.o.) once daily. Subjects must meet the following inclusion criteria to be included in the study:\n• 1. a confirmed MS diagnosis as defined by the McDonald criteria; • 2. a RRMS disease course; • 3. at least one documented relapse n the 12 months prior to screening; • 4. at least one Gadolinium-enhanced lesion on their screening MRI scan; • 5. ambulatory with a Kurtzke EDSS score of 1.0-5.0 (Converted); • 6. between 18-50 years of age inclusive; • 7. relapse-free and off corticosteroids or ACTH for at least 30 days prior to the MRI scan at screening; • 8. relapse-free and off corticosteroids between screening and randomization; • 9. women of child-bearing potential practiced a reliable method of birth control; • 10. willing and able to comply with the protocol requirements for the duration of the study; and • 11. able to give signed, written and informed consent prior to entering the study. Subjects meeting any one of the following exclusion criteria were excluded from the study: • 1. suffered from any form of progressive MS; • 2. use of immunosuppressive or cytotoxic treatments within 6 months prior to the screening visit (including azathioprine, cyclophosphamide and methotrexate); • 3. use of experimental drugs, and/or participation in drug clinical studies within the 6 months prior to screening; • 4. previous treatment with immunomodulators (including IFN-β1a and 1b, glatiramer acetate, laquinimod and IVIG) within the 2 months prior to screening; • 5. use of potent inhibitors of CYP3A4, for example, oral ketoconazole and erythromycin within 2 weeks prior to baseline visit; • 6. previous use of amiodarone; • 7. use of fluoxetine one month prior to baseline visit; • 8. use of substrates of CYP1A2 such as theophylline and warfarin within 2 weeks prior to screening; • 9. previous treatment with cladribine within the last 2 years prior to screening visit; • 10. subjects for whom potential immunosuppression would be contraindicated, for example, Hepatitis B/C or HIV. • 11. previous total body irradiation or total lymphoid irradiation; • 12. chronic corticosteroid treatment (30 or more consecutive days) within the 2 months prior to screening; • 13. pregnancy or breastfeeding; • 14. subjects with a clinically significant or unstable medical or surgical condition that would preclude safe and complete study participation as determined by medical history, physical exams, ECG, abnormal laboratory tests and chest X-ray. • 15. inability to give informed consent, or to complete the study, or if the subject is considered by the investigator to be, for any reason, an unsuitable candidate for the study; • 16. a known history of sensitivity to Gd; or • 17. inability to successfully undergo MRI scanning.\nThe study duration was 40 weeks and consisted of 2 periods: 4 weeks of screening period (week −4 [ screening] to week 0 [ baseline]) and 36 weeks of double blind treatment (week 0 [ baseline] to week 36 [ termination]).\nSubjects were evaluated at study sites at weeks −4, 0, 4, 8, 12, 16, 20, 24, 28, 32 and 36. Samples for inflammatory markers were collected at all visits between 0 and 36 weeks.\nBDNF concentration in serum was measured in patients in the placebo group (102 patients were in the group) and in the 0.6 mg laquinimod group (106 patients were in the group) at week 0 (V0), week 12 (v3) and week 36 (V9). […]"}, "[4]": {"test_system": "Balb/c mice", "experiment": "Elevated Plus Maze (EPM)", "assay_type": "in vivo", "from_the_text": "The EPM model used in Examples 4.1 and 4.2 described below utilizes the natural fear of rodents to avoid open and elevated places. The apparatus consists of a plus-maze with two enclosed and two opposite open arms, elevated above the floor. […] This is one of the most widely used models to study effects of anxiety-like behavior. The maze consisted of two opposing open arms (40×10 cm) and two opposing closed arms (40×10 cm, with 40 cm walls) on a platform 50 cm above the ground. Mice were placed in the center square (10×10 cm) facing an open arm and videotaped during a 5 min exploration. Arm entries and duration were scored when all four paws enter the arm. Balb/c male mice were divided to 6 groups (5/group) and administered laquinimod (0.5, 1, 5 and 25 mg/kg p.o. in the form of laquinimod sodium solution via gavage), fluoxetine (positive control 10 mg/kg po) or vehicle daily for 3 days. On the third day, 90 min following administration, mice were exposed to the EPM for 5 minutes. Mice were placed in the center square (10×10 cm) facing an open arm and videotaped during a 5 minute exploration. Arm entries and duration was scored when all four paws enter the arm. Behavior was video recorded and analyzed using Ethovision software (Noldus Holland). Balb/c male mice were divided to 6 groups (5/group) and administered laquinimod (0.5, 1, 5 and 25 mg/kg p.o. in the form of laquinimod sodium solution via gavage), fluoxetine (positive control 10 mg/kg po) or vehicle daily for 3 days. On the third day, 90 min following administration, mice were exposed to the EPM for 5 min. Behavior was video recorded and open arms parameters were analyzed using Ethovision software (Noldus Holland)."}},
  "note": "“Also recorded” adds a separate entry of the source.",
  "data": [
    {"smiles": "CNCCC(Oc1ccc(C(F)(F)F)cc1)c1ccccc1", "note": "(stereo not drawn) [fluoxetine, reference compound]", "values": [
      {"measurement": "Antidepressant activity in FST", "setting": "[1]; Example 2.1, positive control 10 mg/kg p.o. daily for 3 days", "result": "did not show significant effect"},
      {"measurement": "Antidepressant activity in FST", "setting": "[1]; Example 2.2, positive control 10 mg/kg p.o. daily for 3 days", "result": "trend to the same activity"},
      {"measurement": "Anxiety parameters (zone 2) in open field", "setting": "[2]; Example 3.1, 10 mg/kg p.o. daily for 3 days", "result": "tended to perform more in the center"},
      {"measurement": "Motility parameters in open field", "setting": "[2]; Example 3.1, 10 mg/kg p.o. daily for 3 days, 20 min", "result": "did not modify significantly the motility parameters"},
      {"measurement": "Anxiety parameters (zones 2+3) in open field", "setting": "[2]; Example 3.2, 10 mg/kg p.o. daily for 3 days", "result": "significant anxiolytic effect"},
      {"measurement": "Anxiety parameters (zones 2+3) in open field", "setting": "[2]; Example 3.2, 10 mg/kg p.o. daily for 3 days, listed as Fluoxetine", "result": "performed significantly more in the center"}
    ]},
    {"smiles": "CCN(C(=O)c1c(O)c2c(Cl)cccc2n(C)c1=O)c1ccccc1", "note": "[Laquinimod, N-ethyl-N-phenyl-1,2-dihydro-4-hydroxy-5-chloro-1-methyl-2-oxoquinoline-3-carboxamide]", "values": [
      {"measurement": "Difference in BDNF versus placebo group", "setting": "[3]; 0.6 mg/day, V9 (week 36)", "result": "statistically significant"},
      {"measurement": "Elevation of BDNF versus placebo group", "setting": "[3]; 0.6 mg/day, starting from V3 (week 12), Confidence Level of 95%", "result": "statistically significant elevation of BDNF"},
      {"measurement": "Mean BDNF concentration in serum", "setting": "[3]; 0.6 mg laquinimod p.o. once daily group, baseline week 0 (V0)", "result": 13892.7, "unit": "pg/mL"},
      {"measurement": "Mean BDNF concentration in serum", "setting": "[3]; 0.6 mg laquinimod p.o. once daily, week 12 (V3)", "result": 15519.6, "unit": "pg/mL"},
      {"measurement": "Mean BDNF concentration in serum", "setting": "[3]; 0.6 mg laquinimod p.o. once daily, week 36 (V9)", "result": 15335.8, "unit": "pg/mL"},
      {"measurement": "Difference in mean BDNF, Laquinimod 0.6 mg-Placebo (t Test, unequal variances)", "setting": "[3]; baseline week 0 (V0)", "result": -218.0, "unit": "pg/mL"},
      {"measurement": "Difference in mean BDNF, Laquinimod 0.6 mg-Placebo (t Test, unequal variances)", "setting": "[3]; week 12 (V3)", "result": 2445.70, "unit": "pg/mL"},
      {"measurement": "Difference in mean BDNF, Laquinimod 0.6 mg-Placebo (t Test, unequal variances)", "setting": "[3]; week 36 (V9)", "result": 2552.21, "unit": "pg/mL"},
      {"measurement": "Antidepressant activity (increased mobility, reduced immobility) in FST", "setting": "[1]; Example 2.1, 1 mg/kg p.o. daily for 3 days, 90 min after last dose", "result": "significant antidepressant activity"},
      {"measurement": "Most active dose in FST", "setting": "[1]; Example 2.1, doses tested 1-25 mg/kg/d x3d p.o.", "result": 1, "unit": "mg/kg"},
      {"measurement": "Antidepressant activity (increased mobility, reduced immobility) in FST", "setting": "[1]; Example 2.1, higher doses (25 mg/kg) p.o. daily for 3 days", "result": "trend to significance"},
      {"measurement": "Antidepressant activity (increased mobility, reduced immobility) in FST", "setting": "[1]; Example 2.2, 5 and 25 mg/kg p.o. daily for 3 days", "result": "significant antidepressant activity"},
      {"measurement": "Most potent dose, anxiety parameters (zones 2 and 3) in open field", "setting": "[2]; Example 3.1", "result": 1, "unit": "mg/kg"},
      {"measurement": "Motility parameters in open field", "setting": "[2]; Example 3.1, 1-25 mg/kg/d x3d p.o., 20 min", "result": "did not modify significantly the motility parameters; also recorded: did not modify general mobility parameters"},
      {"measurement": "Anxiety parameters (zone 2) in open field", "setting": "[2]; Example 3.1, 1-25 mg/kg/d x3d p.o., frequency, time spent, distance moved, rearings", "result": "tendency toward anxiolytic effect"},
      {"measurement": "Anxiety parameters (zone 2) in open field", "setting": "[2]; Example 3.1, 1-25 mg/kg/d x3d p.o., frequency, time spent, distance moved, rearings, listed as laquinimod", "result": "tended to perform more in the center"},
      {"measurement": "Anxiety parameters (zones 2 and 3) in open field", "setting": "[2]; Example 3.1, 1-25 mg/kg/d x3d p.o., time spent, distance moved, rearings", "result": "tendency toward anxiolytic effect"},
      {"measurement": "Anxiety parameters (zones 2 and 3) in open field", "setting": "[2]; Example 3.1, 1-25 mg/kg/d x3d p.o., time spent, distance moved, rearings, listed as laquinimod", "result": "tended to perform more in the center"},
      {"measurement": "Most potent dose, anxiety parameters in open field", "setting": "[2]; Example 3.2", "result": 5, "unit": "mg/kg"},
      {"measurement": "Motility parameters in open field", "setting": "[2]; Example 3.2, 0.5-5 mg/kg (0.5-25 mg/kg/d x3d p.o. tested)", "result": "slight increase in motility"},
      {"measurement": "Anxiety parameters (zones 2+3) in open field", "setting": "[2]; Example 3.2, 0.5-5 mg/kg p.o. daily for 3 days, frequency, time spent, rearings", "result": "performed significantly more in the center; also recorded: significant anxiolytic effect"},
      {"measurement": "Anxiolytic activity in EPM", "setting": "[4]; Example 4.1, 0.5, 1, 5 and 25 mg/kg p.o. daily for 3 days", "result": "anxiolytic activity in a dose dependent manner"},
      {"measurement": "Anxiolytic effect in EPM (activity on the open arm)", "setting": "[4]; Example 4.1, 5 and 25 mg/kg/d x3d p.o., 5 min", "result": "significant anxiolytic effect"},
      {"measurement": "Dose of maximal effect in EPM", "setting": "[4]; Example 4.1, p.o.", "result": 25, "unit": "mg/kg"},
      {"measurement": "Anxiolytic activity in EPM", "setting": "[4]; Example 4.2, 0.5, 1, 5 and 25 mg/kg p.o. daily for 3 days", "result": "anxiolytic activity in a dose dependent manner"},
      {"measurement": "Anxiolytic effect in EPM (open arm parameters)", "setting": "[4]; Example 4.2, 5-25 mg/kg/d x3d p.o., 5 min", "result": "significant anxiolytic effect"},
      {"measurement": "Dose of maximal effect in EPM", "setting": "[4]; Example 4.2, p.o.", "result": "5 to 25", "unit": "mg/kg"}
    ]}
  ]
}
